Results from paper PMC2263054, “Functional evolution of the vitamin D and pregnane X receptors” (BMC Evolutionary Biology, 2007).
Where a name gives a salt, the structure may show the parent alone. Read-outs that look alike come from different tables or passages of the source.

Columns and labels:
Type in all cases: cell-based
Xenopus laevis VDR = biological target: T1, Xenopus laevis VDR (Xenopus laevis, UniProt O13124); test: luciferase reporter transactivation assay in HepG2-NTCP cells, GAL4/xlVDR LBD chimera with tk-UAS-Luc; settings: screening for activators, at least three concentrations of each drug
T1 sequence (O13124 90-422): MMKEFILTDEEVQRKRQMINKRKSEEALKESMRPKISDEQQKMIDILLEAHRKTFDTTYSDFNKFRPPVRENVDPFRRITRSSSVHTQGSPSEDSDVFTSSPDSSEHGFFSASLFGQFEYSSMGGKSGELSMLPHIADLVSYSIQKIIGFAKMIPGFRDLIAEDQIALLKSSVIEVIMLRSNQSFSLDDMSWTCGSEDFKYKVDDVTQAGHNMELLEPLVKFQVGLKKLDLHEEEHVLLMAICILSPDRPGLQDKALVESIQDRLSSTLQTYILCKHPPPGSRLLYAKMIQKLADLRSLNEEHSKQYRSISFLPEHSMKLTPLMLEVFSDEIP

Zebrafish VDR = biological target: T2, Zebrafish VDR (Danio rerio, UniProt Q9PTN2); test: luciferase reporter transactivation assay in HepG2-NTCP cells, GAL4/zfVDR LBD chimera with tk-UAS-Luc; settings: screening for activators, at least three concentrations of each drug
T2 sequence (Q9PTN2 121-453): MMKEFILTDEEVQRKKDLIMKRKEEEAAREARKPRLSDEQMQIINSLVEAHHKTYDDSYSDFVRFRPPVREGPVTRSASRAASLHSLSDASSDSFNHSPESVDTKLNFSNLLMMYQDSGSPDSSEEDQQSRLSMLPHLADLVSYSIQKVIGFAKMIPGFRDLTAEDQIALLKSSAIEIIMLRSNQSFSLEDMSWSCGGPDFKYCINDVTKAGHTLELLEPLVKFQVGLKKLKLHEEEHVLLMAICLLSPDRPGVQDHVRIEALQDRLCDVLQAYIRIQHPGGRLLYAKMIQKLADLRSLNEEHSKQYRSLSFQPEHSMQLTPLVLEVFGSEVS

Sea lamprey VDR = biological target: T3, Sea lamprey VDR (Petromyzon marinus, UniProt Q7ZZY9)
T3 sequence (Q7ZZY9 92-406): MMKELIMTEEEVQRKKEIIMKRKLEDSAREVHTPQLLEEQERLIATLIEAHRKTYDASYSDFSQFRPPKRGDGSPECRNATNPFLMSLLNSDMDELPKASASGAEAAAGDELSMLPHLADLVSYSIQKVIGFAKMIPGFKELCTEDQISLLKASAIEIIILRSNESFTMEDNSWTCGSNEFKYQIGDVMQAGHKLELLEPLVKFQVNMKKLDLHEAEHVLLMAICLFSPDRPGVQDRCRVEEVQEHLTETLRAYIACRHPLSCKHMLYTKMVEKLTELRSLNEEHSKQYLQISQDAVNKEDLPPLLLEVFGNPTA

[1] = screening for activators, at least three concentrations of each drug

## C[C@]12CC[C@@H](O)C[C@@H]1CC[C@@H]1[C@@H]2[C@@H](O)C[C@]2(C)[C@@H](C(=O)CO)CC[C@@H]12 [5a-Pregnan-3a,11b,21-triol-20-one]
Xenopus laevis VDR
  Effect on Xenopus laevis VDR: No effect
Zebrafish VDR
  Effect on zebrafish VDR: No effect
Sea lamprey VDR; [1]
  Effect on sea lamprey VDR: No effect

## CC(C)(Oc1ccc(CCNC(=O)c2ccc(Cl)cc2)cc1)C(=O)O [Bezafibrate]
Xenopus laevis VDR
  Effect on Xenopus laevis VDR: No effect
Zebrafish VDR
  Effect on zebrafish VDR: No effect
Sea lamprey VDR; [1]
  Effect on sea lamprey VDR: No effect

## C[C@@H](O)[C@H]1CC[C@H]2[C@@H]3CC[C@@H]4C[C@H](O)CC[C@]4(C)[C@H]3CC[C@]12C [5b-Pregnan-3a,20b,diol]
Xenopus laevis VDR
  Effect on Xenopus laevis VDR: No effect
Zebrafish VDR
  Effect on zebrafish VDR: No effect
Sea lamprey VDR; [1]
  Effect on sea lamprey VDR: No effect

## CC(=O)N1CCN(c2ccc(OCC3COC(Cn4ccnc4)(c4ccc(Cl)cc4Cl)O3)cc2)CC1 (stereo not shown) [Ketoconazole]
Xenopus laevis VDR
  Effect on Xenopus laevis VDR: No effect
Zebrafish VDR
  Effect on zebrafish VDR: No effect
Sea lamprey VDR; [1]
  Effect on sea lamprey VDR: No effect

## C[C@H](CCC(=O)O)[C@H]1CC[C@H]2[C@@H]3[C@H](O)C[C@@H]4C[C@H](O)CC[C@]4(C)[C@H]3CC[C@]12C [Chenodeoxycholic acid]
Xenopus laevis VDR
  Effect on Xenopus laevis VDR: No effect
Zebrafish VDR
  Effect on zebrafish VDR: No effect
Sea lamprey VDR
  Effect on sea lamprey VDR: No effect

## CC(=O)[C@@]1(O)CC[C@H]2[C@@H]3CC=C4C[C@@H](O)CC[C@]4(C)[C@H]3CC[C@@]21C [17-Hydroxypregnenolone]
Xenopus laevis VDR
  Effect on Xenopus laevis VDR: No effect
Zebrafish VDR
  Effect on zebrafish VDR: No effect
Sea lamprey VDR; [1]
  Effect on sea lamprey VDR: No effect

## C[C@]12CC[C@@H](O)C[C@H]1CC[C@@H]1[C@@H]2[C@@H](O)C[C@@]2(C)[C@H]1CC[C@]2(O)C(=O)CO [Tetrahydrocortisol]
Xenopus laevis VDR
  Effect on Xenopus laevis VDR: No effect
Zebrafish VDR
  Effect on zebrafish VDR: No effect
Sea lamprey VDR; [1]
  Effect on sea lamprey VDR: No effect

## CC1=C(/C=C/C(C)=C/C=C/C(C)=C/C(=O)O)C(C)(C)CCC1O (stereo not shown) [4-Hydroxretinoic acid]
Xenopus laevis VDR
  Effect on Xenopus laevis VDR: No effect
Zebrafish VDR
  Effect on zebrafish VDR: No effect
Sea lamprey VDR; [1]
  Effect on sea lamprey VDR: No effect

## Clc1ccc(-c2nc3sccn3c2/C=N/OCc2ccc(Cl)c(Cl)c2)cc1 [CITCO]
Xenopus laevis VDR
  Effect on Xenopus laevis VDR: No effect
Zebrafish VDR
  Effect on zebrafish VDR: No effect
Sea lamprey VDR; [1]
  Effect on sea lamprey VDR: No effect

## C#C[C@]1(O)CC[C@H]2[C@@H]3CCC4=CC(=O)CC[C@@H]4[C@H]3CC[C@@]21C [Norethindrone]
Xenopus laevis VDR
  Effect on Xenopus laevis VDR: No effect
Zebrafish VDR
  Effect on zebrafish VDR: No effect
Sea lamprey VDR
  Effect on sea lamprey VDR: No effect

## CC(O)C1CCC2C3CCC4CC(O)CCC4(C)C3CCC12C (stereo not shown) [5a-pregnan-3a,20a-diol]
Xenopus laevis VDR
  Effect on Xenopus laevis VDR: No effect
Zebrafish VDR
  Effect on zebrafish VDR: No effect
Sea lamprey VDR; [1]
  Effect on sea lamprey VDR: No effect

## C/C=C1\C(=O)C[C@H]2[C@@H]3CCC4=CC(=O)CC[C@]4(C)[C@H]3CC[C@]12C [Z-Guggulsterone]
Xenopus laevis VDR
  Effect on Xenopus laevis VDR: No effect
Zebrafish VDR
  Effect on zebrafish VDR: No effect
Sea lamprey VDR; [1]
  Effect on sea lamprey VDR: No effect

## C[C@]12CC[C@H](O)CC1=CC[C@@H]1[C@@H]2CC[C@]2(C)C(=O)CC[C@@H]12 [DHEA]
Xenopus laevis VDR
  Effect on Xenopus laevis VDR: No effect
Zebrafish VDR
  Effect on zebrafish VDR: No effect
Sea lamprey VDR; [1]
  Effect on sea lamprey VDR: No effect

## C[C@]12CC[C@H]3[C@@H](C[C@H](F)C4=CC(=O)CC[C@@]43C)[C@@H]1CC[C@@H]2O [6a-Fluorotestosterone]
Xenopus laevis VDR
  Effect on Xenopus laevis VDR: No effect
Zebrafish VDR
  Effect on zebrafish VDR: No effect
Sea lamprey VDR; [1]
  Effect on sea lamprey VDR: No effect

## C[C@H](CCC(=O)O)[C@H]1CC[C@H]2[C@@H]3CC[C@@H]4C[C@H](O)CC[C@]4(C)[C@H]3CC(=O)[C@]12C [12-Ketolithocholic acid]
Xenopus laevis VDR
  Effect on Xenopus laevis VDR: No effect
Zebrafish VDR
  Effect on zebrafish VDR: No effect
Sea lamprey VDR; [1]
  Effect on sea lamprey VDR: No effect

## Cc1c(C)c2c(c(C)c1O)CCC(C)(COc1ccc(CC3SC(=O)NC3=O)cc1)O2 (stereo not shown) [Troglitazone]
Xenopus laevis VDR
  Effect on Xenopus laevis VDR: No effect
Zebrafish VDR
  Effect on zebrafish VDR: No effect
Sea lamprey VDR; [1]
  Effect on sea lamprey VDR: No effect

## CC(=O)N[C@@H](CSC/C=C(\C)CC/C=C(\C)CCC=C(C)C)C(=O)O [Acetyl-farnesyl-cysteine]
Xenopus laevis VDR
  Effect on Xenopus laevis VDR: No effect
Zebrafish VDR
  Effect on zebrafish VDR: No effect
Sea lamprey VDR; [1]
  Effect on sea lamprey VDR: No effect

## C[C@]12CC[C@@H]3c4ccc(O)cc4CC[C@H]3[C@@H]1CC[C@@H]2O [17b-Estradiol, 17β-estradiol]
Xenopus laevis VDR
  Effect on Xenopus laevis VDR: No effect
Xenopus laevis VDR; listed as 17β-estradiol
  Effect on Xenopus laevis VDR: None of these three VDRs were activated
Zebrafish VDR
  Effect on zebrafish VDR: No effect
Zebrafish VDR; listed as 17β-estradiol
  Effect on zebrafish VDR: None of these three VDRs were activated
Sea lamprey VDR; [1]
  Effect on sea lamprey VDR: No effect
Sea lamprey VDR; screening for activators, at least three concentrations of each drug, listed as 17β-estradiol
  Effect on sea lamprey VDR: None of these three VDRs were activated

## CC(=O)[C@H]1CC[C@H]2[C@@H]3CC[C@@H]4C[C@H](OS(=O)(=O)O)CC[C@]4(C)[C@H]3CC[C@]12C [5b-pregnan-3a-ol-20-one sulfate]
Xenopus laevis VDR
  Effect on Xenopus laevis VDR: No effect
Zebrafish VDR
  Effect on zebrafish VDR: No effect
Sea lamprey VDR; [1]
  Effect on sea lamprey VDR: No effect

## CC(=O)N[C@@H](CSC/C=C(\C)CCC=C(C)C)C(=O)O [Acetyl-geranyl-cysteine]
Xenopus laevis VDR
  Effect on Xenopus laevis VDR: No effect
Zebrafish VDR
  Effect on zebrafish VDR: No effect
Sea lamprey VDR; [1]
  Effect on sea lamprey VDR: No effect

## CC(C)=CCC/C(C)=C/CC/C(C)=C/CSCC(=O)O [Farnesylthioacetic acid]
Xenopus laevis VDR
  Effect on Xenopus laevis VDR: No effect
Zebrafish VDR
  Effect on zebrafish VDR: No effect
Sea lamprey VDR; [1]
  Effect on sea lamprey VDR: No effect

## C[C@H](CCC(=O)O)[C@H]1CC[C@H]2[C@@H]3[C@H](O)[C@@H](O)[C@@H]4C[C@H](O)CC[C@]4(C)[C@H]3CC[C@]12C [a-Muricholic acid]
Xenopus laevis VDR
  Effect on Xenopus laevis VDR: No effect
Zebrafish VDR
  Effect on zebrafish VDR: No effect
Sea lamprey VDR; [1]
  Effect on sea lamprey VDR: No effect

## C[C@]12CC[C@@H](O)C[C@H]1CC[C@@H]1[C@@H]2C(=O)C[C@]2(C)C(=O)CC[C@@H]12 [5b-Androstan-3a-ol-11,17-one]
Xenopus laevis VDR
  Effect on Xenopus laevis VDR: No effect
Zebrafish VDR
  Effect on zebrafish VDR: No effect
Sea lamprey VDR; [1]
  Effect on sea lamprey VDR: No effect

## CCc1ccc(CCOc2ccc(CC3SC(=O)NC3=O)cc2)nc1 (stereo not shown) [Pioglitazone HCl]
Xenopus laevis VDR
  Effect on Xenopus laevis VDR: No effect
Zebrafish VDR
  Effect on zebrafish VDR: No effect
Sea lamprey VDR; [1]
  Effect on sea lamprey VDR: No effect

## CC1=C(/C=C/C(C)=C/C=C/C(C)=C/C=C/C=C(C)/C=C/C=C(C)/C=C/C2=C(C)CCCC2(C)C)C(C)(C)CCC1 [Beta-carotene]
Xenopus laevis VDR
  Effect on Xenopus laevis VDR: No effect
Zebrafish VDR
  Effect on zebrafish VDR: No effect
Sea lamprey VDR; [1]
  Effect on sea lamprey VDR: No effect

## CCOP(=O)(OCC)C(=Cc1cc(C(C)(C)C)c(O)c(C(C)(C)C)c1)P(=O)(OCC)OCC [SR12813]
Xenopus laevis VDR
  Effect on Xenopus laevis VDR: No effect
Zebrafish VDR
  Effect on zebrafish VDR: No effect
Sea lamprey VDR; [1]
  Effect on sea lamprey VDR: No effect

## S-Farnesyl-L-cysteine methyl ester
Zebrafish VDR
  Effect on zebrafish VDR: No effect
Sea lamprey VDR; [1]
  Effect on sea lamprey VDR: No effect

## COC(C)(C)CCCC(C)C/C=C/C(C)=C/C(=O)O (stereo not shown) [Methoprene acid]
Zebrafish VDR
  Effect on zebrafish VDR: No effect
Sea lamprey VDR; [1]
  Effect on sea lamprey VDR: No effect

## CC1=C(/C=C/C(C)=C/C=C/C(C)=C/CO)C(C)(C)CCC1 [all-trans-Retinol]
Zebrafish VDR
  Effect on zebrafish VDR: No effect

## CC#C[C@]1(O)CC[C@H]2[C@@H]3CCC4=CC(=O)CCC4=C3[C@@H](c3ccc(N(C)C)cc3)C[C@@]21C [Mifepristone]
Xenopus laevis VDR
  Effect on Xenopus laevis VDR: No effect
Sea lamprey VDR
  Effect on sea lamprey VDR: No effect

## C[C@]12CC[C@H]3[C@@H](CCC4=CC(=O)CC[C@@]43C)[C@@H]1CC[C@@H]2O [Testosterone]
Xenopus laevis VDR
  Effect on Xenopus laevis VDR: No effect
Xenopus laevis VDR; listed as testosterone
  Effect on Xenopus laevis VDR: None of these three VDRs were activated
Zebrafish VDR
  Effect on zebrafish VDR: No effect
Zebrafish VDR; listed as testosterone
  Effect on zebrafish VDR: None of these three VDRs were activated

## C[C@]12CC[C@@H]3c4ccc(O)cc4CC[C@H]3[C@@H]1CCC2=O [Estrone]
Zebrafish VDR
  Effect on zebrafish VDR: No effect
Sea lamprey VDR; [1]
  Effect on sea lamprey VDR: No effect

## C[C@]12CCC(=O)C=C1CC[C@@H]1[C@@H]2CC[C@]2(C)C(=O)CC[C@@H]12 [Androstenedione]
Zebrafish VDR
  Effect on zebrafish VDR: No effect
Sea lamprey VDR; [1]
  Effect on sea lamprey VDR: No effect

## C[C@]12CC[C@H]3[C@@H](CCC4=CC(=O)CC[C@@]43C)[C@@H]1CC[C@H]2O [Epitestosterone]
Xenopus laevis VDR
  Effect on Xenopus laevis VDR: No effect
Zebrafish VDR
  Effect on zebrafish VDR: No effect

## C[C@H](CCC(=O)O)[C@H]1CC[C@H]2[C@@H]3[C@H](O)C[C@@H]4C[C@H](O)CC[C@]4(C)[C@H]3C[C@H](O)[C@]12C [Cholic acid]
Xenopus laevis VDR
  Effect on Xenopus laevis VDR: No effect
Zebrafish VDR
  Effect on zebrafish VDR: No effect
